# In a melting point compilation (Tetko et al.; mined from patent text by program, amines drawn as free bases though some values may be those of a salt):
row,melting point,Compound
1,170 to 172 °C,COc1ccc2c(Cc3c(Cl)cncc3Cl)nnc(N3CCCC3)c2c1
2,279 °C,N#Cc1cccc(Cl)c1-c1[nH]c(=O)c(-c2ccccc2)cc1C(=O)O
3,61 to 63 °C,CCOC(=O)c1nc(-c2ccc(OC)cc2)ns1
4,126 to 128 °C,CCOC(=O)C1=C(C)NC(C#N)=C(C(=O)OCC)C1c1ccccc1[N+](=O)[O-] (stereo unspecified)
5,53 to 54 °C,COc1ccc(O)c(C=O)c1OC
6,265 to 266 °C,COC(=O)c1nn(-c2ccccc2)c(=O)c2c1c1cc(Cl)ccc1n2C
7,71 °C,Cc1cccc(-c2nc3ccc(OCCN(C)C)cc3n2Cc2ccccc2Br)c1
8,150 °C,O=C1OCCN1c1ccc(NCC(O)CO)c([N+](=O)[O-])c1 (stereo unspecified)
9,153 to 154 °C,O=C(O)CCc1c(-c2ccc(F)cc2)[nH]c2ccc(Cl)cc12
10,68 to 70 °C,CCCN(c1ccncc1Cl)n1cc(C)c2ccccc21
11,202 to 203 °C,FC(F)(F)c1cccc(-c2ccn3cnnc3n2)c1
12,161 to 162 °C,N=C(Nc1ccc(Cl)cc1)Nc1ncccc1OCc1c(F)cc(F)cc1F
13,82 to 83 °C,CC(C)COC1C=CC(=O)N1S(=O)(=O)c1ccccc1 (stereo unspecified)
14,192 to 193 °C,CC(=O)c1cc(C(=O)O)c(O)c([N+](=O)[O-])c1
15,70 to 90 °C,CC(=O)OC1CSC(Oc2cc(-c3ccc(F)nc3)cnc2Cl)C(OC(C)=O)C1OC(C)=O (stereo unspecified)
16,181 to 183 °C,CCc1c(NC(=O)OC(C)(C)C)cccc1NC(=O)c1ccc(Br)cc1
17,258 °C,COC(=O)CCCc1nc2[nH]c3ccccc3c2c(=O)[nH]1
18,101 to 102 °C,O=C(Nc1ccc(N(Cc2ccccc2)C(=O)OCc2ccccc2)c(F)c1)OCc1ccccc1
19,142 to 143 °C,CC(=O)SCCC1(C)C(=O)N2CCCC(C(=O)O)N2C1=O (stereo unspecified)
20,250 to 252 °C,N#Cc1c(Cl)c(Cl)n(C#N)c1-c1ccc(Cl)c(Cl)c1
21,80 to 84 °C,CN1C(=O)CC[C@]2(C)c3ccc(Sc4ncccc4[N+](=O)[O-])cc3CC[C@@H]12
22,187 to 189 °C,Cn1cc(C(=O)NCc2ccc(Cl)cc2)c(=O)c2cc(CN3CCOCC3)cc(F)c21
23,70 to 75 °C,C=CC[C@H]1C(=O)N(S(=O)(=O)c2cccc(S(=O)(=O)N(C)C)c2)[C@H]2CCN(C(=O)OCc3ccccc3)[C@H]12 (relative stereo)

row,melting point,Compound
1,170 to 171 °C,CSc1nnc(-c2ccccc2Nc2c(Cl)ccc(C)c2Cl)o1
2,193 °C,Cc1cncn1CC(O)c1ccccc1 (stereo unspecified)
3,175 to 177 °C,CC(=O)Oc1ccccc1C(=O)N1CCN(C(=O)c2ccccc2OC(C)=O)CC1
4,89 to 92 °C,COCc1nc(N2CCCCC2)ncc1C(=O)OC
5,112 to 115 °C,CN(C)C(=S)C(O)c1ccccc1C(F)(F)F (stereo unspecified)
6,311 to 313 °C,Cn1c(=O)[nH]c2nc3ccc(OCCCCC(=O)O)cc3cc21
7,198 to 200 °C,Cc1nc2ccc(-c3ccc(OCC4(N)COC4)cc3)nn2c1-c1cnc(N)c(C(F)(F)F)c1
8,90 °C,C#CCCCNC(=O)C(c1ccccc1)c1ccccc1
9,127 to 129 °C,COc1ccc(C(=O)c2c(C)cc(NC(C)(C)C)nc2NC(C)(C)C)cc1
10,173 to 174 °C,O=[N+]([O-])c1cc(-c2ccoc2)ccc1Nc1cccc(-n2ccnc2)n1
11,207 to 209 °C,Nc1ccc(-c2nnc(-c3ccccn3)nn2)nc1
12,110 to 113 °C,CCN(CC)CCC1CCCN(C(=O)N2c3ccccc3NC(=O)c3cccnc32)C1 (stereo unspecified)
13,50 °C,CCCc1ccc(C=NN=Cc2ccc(F)c(F)c2)cc1
14,145 to 148 °C,O=c1[nH]cncc1Cc1cccnc1
15,193 to 195 °C,Cc1nc2c(N)nc3ccccc3c2n1CCCC1(C)OCCO1
16,192 to 194 °C,Cc1nc2c(O)c(CCC(=O)c3ccccc3)c(C(=O)N(C)C)cc2n1COCC[Si](C)(C)C
17,136 °C,N#CCc1cccc2c(-c3ccc(F)cc3)nccc12
18,192 to 199 °C,O=C(O)c1cn(C2CC2)c2c(F)c(N3CCC(n4ncnn4)C3)c(F)cc2c1=O (stereo unspecified)
19,85 °C,CC(C)(Cc1ccc(Cl)cc1Cl)C(=O)Cn1cncn1
20,242 to 243 °C,COc1cc(-c2c(Cl)c(CN3C(=O)CCC3=O)nc3sc4c(c23)CCN(C(C)=O)C4)ccc1OC(C)C
21,118 to 119 °C,COC(=O)Cc1cn(C)nc1O
22,106 to 107 °C,COC(=O)C(=O)c1ccccc1COc1ccc(-c2ccccc2)cc1
23,227 to 229 °C,O=C(O)c1ccc(Nc2cccc3ccccc23)cc1

row,melting point,Compound
1,40 to 40.5 °C,CCOC(=O)c1ccc(C(F)(F)F)c(Br)n1
2,117 to 119 °C,O=C(c1ccc(Oc2ccccc2)cc1)c1cccc(C(=O)c2ccc(Oc3ccccc3)cc2)c1
3,> 250 °C,Cn1c(C(F)(F)F)cc(=O)n(-c2ccc3snc(-c4nc5ccccc5[nH]c4=O)c3c2)c1=O
4,157 to 158 °C,CCCCn1c(Nc2cc(Cl)cc(C(F)(F)F)c2)nc(C(F)(F)F)cc1=O
5,253 to 254 °C,N=C(Cc1ccccc1-n1cnc2cnc3ccc(-c4ccccc4)cc3c21)NO
6,213 to 216 °C,CCc1ccccc1S(=O)(=O)c1cc(N)c2ncccc2c1[N+](=O)[O-]
7,74 to 77 °C,COCCCCCC(=O)c1ccc(S(C)=O)cc1 (stereo unspecified)
8,218 to 220 °C,Cc1ccc(-c2c(Cl)ccc3c2C=C(C(=O)O)C(C(F)(F)F)O3)cc1 (stereo unspecified)
9,131 °C,CCOC(=O)NC(=NCCC(c1ccccc1)c1ccc(F)cc1)NCCCc1c[nH]cn1 (stereo unspecified)
10,47 to 49 °C,CCCCCCCc1c(C)[nH]c(C(=O)OCC)c1C
11,162 to 163 °C,Cn1cc(Cl)cc(Br)c1=O
12,192 to 193 °C,CC(C)(C(=O)OCC(=O)c1ccccc1)n1c(=O)[nH]c2ccc(F)cc2c1=O
13,206 to 207 °C,CC(C)[C@H](NC(=O)OCc1ccccn1)C(=O)N[C@@H](Cc1ccccc1)C[C@H](OC=O)[C@H](Cc1ccccc1)NC(=O)[C@@H](NC(=O)OCc1ccccn1)C(C)C
14,186 to 192 °C,Cc1cc(C)nc(N(C(=O)NS(C)(=O)=O)c2ccccc2)n1
15,130 to 133 °C,CCCn1c(=O)c(C(=O)OCC)c(O)c2cnc(SC)nc21
16,202 to 204 °C,COc1ccc(N(C(=O)CN2C(=O)C(Cc3nn(Cc4ccccc4)c4ccccc34)(OC)C(=O)Nc3ccccc32)C(C)C)cc1 (stereo unspecified)
17,255 to 258 °C,Cc1ccccc1-n1c(-c2cc(-c3ccc(S(C)(=O)=O)cc3)c(N3CCOCC3)s2)nc2ccccc2c1=O
18,185 to 186 °C,O=c1c(CCCc2nc3ccccc3s2)cc2cccnc2n1-c1cccc([N+](=O)[O-])c1
19,159 to 160 °C,CC(=O)C1Cc2ccc(O)c(O)c2C1=O (stereo unspecified)
20,96 to 97 °C,COC(=O)C(=O)c1ccccc1Oc1cc(Oc2ccccc2C#N)ncn1
21,86 °C,CC=CCC1C(=O)c2cc(OC)c(Cl)cc2C1(C)C (racemic)
22,227 to 228 °C,Cc1ccc(-c2c(Cl)ncnc2NS(=O)(=O)c2ccc(C(C)(C)CO)cc2)cc1
23,63 to 64 °C,CCC(=O)c1ccc(OCc2cccc(C(F)(F)F)c2)cc1

row,melting point,Compound
1,103 to 105 °C,O=C(Nc1ccc(CCN2C(=O)C3CCCC3=Nc3ccccc32)cc1)OCc1ccccc1 (stereo unspecified)
2,67 to 69 °C,CC(C)(C)c1cc(SCC(=O)N2CCN(c3ccc(NC(=N)c4cccs4)cc3)CC2)cc(C(C)(C)C)c1O
3,198 to 199 °C,CCN(CC)c1ccc(NC(=O)c2ccc(-c3[nH]nc4c3C(=O)c3c(NC(=O)NN5CCOCC5)cccc3-4)s2)cc1
4,205 to 206 °C,CC1COCc2nc3c(N)nc4cc(CCS(C)(=O)=O)ccc4c3n21 (stereo unspecified)
5,127 to 129 °C,CCSc1cn(C)cc(-c2cc(C(F)(F)F)ccc2Cl)c1=O
6,132 to 137 °C,O=C(O)C1CCN1C(c1ccccc1)c1ccccc1 (stereo unspecified)
7,188 to 190 °C,COc1cc(C=C2OC(C)=CC2=O)cc(OC)c1O
8,60 to 62 °C,CCCCCCCCN=C=O
9,235 to 236 °C,N#Cc1cc(-c2c3ccccc3cc3sc4ccccc4c23)ccc1OCC(=O)O
10,56 to 58 °C,CSc1cc(C(C)(C)C)nn1C(=O)N(C)C
11,165 to 166 °C,Cc1cccc(C)c1NC(=O)c1ccc(Cl)nc1
12,228 to 230 °C,NS(=O)(=O)c1ccc(-c2[nH]c3ccccc3c2-c2ccc(F)cc2)cc1
13,144 to 145 °C,CCCc1c(OCCCOc2ccc(C(=O)O)cc2F)ccc(C(C)=O)c1OC(C)=O
14,93 to 95 °C,C#CCOc1cccc(NC(=O)c2ccccc2C)c1
15,161 to 163 °C,Cc1ccc(-c2ccccc2C(=O)Nc2ccc(C(=O)N3CCC(=O)N(CC(=O)N4CCN(C)CC4)c4ccccc43)cc2)cc1
16,245 to 247 °C,CCOC(=O)c1[nH]c2cc(Cl)cc(Cl)c2c1NS(=O)(=O)c1ccccc1
17,120 °C,CN(C)c1c(Cl)cc(C(O)C#Cc2ccc(C(=O)O)cc2)cc1C(C)(C)C (stereo unspecified)
18,151 to 152 °C,CCCc1nn(C)c2c(=O)[nH]c(-c3sccc3OCC)nc12
19,98 to 99 °C,C=CCOC1OC(C)C(OCc2ccccc2)C(OCc2ccccc2)C1OC1OC(C)C(OCc2ccccc2)C(OCc2ccccc2)C1O (stereo unspecified)
20,98 to 100 °C,COc1ccccc1N1CCN(C(=O)NCCN(C)C)CC1
21,49 to 52 °C,CC(=O)SC1CN(C(C(=O)C2CC2)c2ccccc2F)C1 (stereo unspecified)
22,183 to 186 °C,COC(=O)c1nc(Cl)c(F)c(NC(C)=O)c1Cl
23,75 to 78 °C,CCOC(=O)C1=C(C)NC(C)=C(C(=O)OCCN2CCN(C(c3ccc(C)cc3)c3ccc(C)cc3)CC2)C1c1cccc(OC)c1 (stereo unspecified)

row,Compound,melting point
1,CCOc1ccc(Nc2nc(NC(CO)CO)nc(N(C)C3CCN(C)CC3)n2)cc1Cl,84 °C
2,COc1ccc2c(c1O)C13CCN(CC4CC4)C(C2)C1(Cc1ccccc1)CCC(=O)C3 (stereo unspecified),122 to 124 °C
3,CCCN1CC(C(=O)OC)CC2c3cccc4[nH]cc(c34)CC21 (stereo unspecified),202 to 204 °C
4,O=C1c2c(Cl)cccc2-n2cnc(-c3noc(CN(Cc4ccccc4)Cc4ccccc4)n3)c2[C@@H]2CCCN12,107 to 109 °C
